# Test results from patent US8835377B2, “Oral delivery of peptide pharmaceutical compositions” (UGP Therapeutics, Inc., priority 2004, dated 2014).
# Test: Pharmacokinetics after oral capsules (sCT plus Dmt-DALDA with citric acid and lauroyl carnitine), non-enteric coated or enteric coated, in fasted beagle dogs (plasma; ELISA for sCT, HPLC-MS for Dmt-DALDA)
# Type: in vivo
# Details: for AUC / Cmax: normalized to a 1 mg dose; for Tmax / Cmax: beagle, dog, plasma, oral; for plasma peptide concentration normalized to a 1 mg dose: enteric coated capsule
# Method: A second series of tests was carried out, as noted above, using beagle dogs. […] In the experiments represented in FIGS. 2A and 2B, size 00 […] capsules were each filled with 758 mg of a powdered blend consisting of citric acid (643 mg), lauroyl carnitine (66 mg), talc (33 mg), salmon calcitonin (sCT) (13 mg) and Dmt-DALDA (2.4 mg). Half of the capsules were coated with an enteric coating solution of L30D-55, while the remaining 50% of the capsules were not coated. Four fasted dogs were each given 1 uncoated capsule, and 2 weeks later they were each given an enteric coated capsule. After administration of each capsule, samples of blood were taken at 15 minute intervals from an indwelling catheter for up to 4 hours. The blood samples were centrifuged and the resulting plasma supernatants were stored frozen at −20° C. The plasma samples were subsequently analyzed for sCT by a direct ELISA, and for Dmt-DALDA by HPLC-mass spectrometry performed as set forth in Wan, H. and Desiderio, D., Quantitation of [DMT^1] DALDA in ovine plasma by on-line liquid chromatography/quadrapole time-of-flight mass spectrometry, Rapid Communications in Mass Spectrometry, 2003; 17, 538-546, the contents of which are incorporated herein by reference.
# The results summarized in FIGS. 2A and 2B as plasma peptide concentration normalized to a 1 mg dose as a function of time relative to the average Tmax, (i.e., the time at which the maximum amount of peptide was detected) indicate that both peptides, i.e., sCT and Dmt-DALDA, were detected in dogs given uncoated or enteric coated capsules. […] Table DI (below) sets forth the values upon which the curves in FIGS. 2A and 2B are based. The results are summarized in the tables as plasma peptide concentration normalized to a 1 mg dose as a function of time. Table III, moreover, provides the standard deviations for the data obtained regarding each of the test dogs, which standard deviations are also indicated in FIGS. 2A and 2B.
# Table IV (below) summarizes the pharmacokinetic parameters in dogs of orally administered sCT and Dmt-DALDA when administered in non-enteric coated versus enteric coated capsules. Peptide was not detected from 1 dog in each group due to (a) Dog 3 vomiting the uncoated capsule and (b) delayed gastric emptying in Dog 2 provided with an enteric coated capsule. Cmax and AUC are as defined with regard to Table H above.
# [1] = Non-Enteric Capsule, Avg (n = 3)
compound,measurement,setting,value
"CC(C)C[C@H](NC(=O)[C@H](CCCCN)NC(=O)CNC(=O)[C@H](CC(C)C)NC(=O)[C@@H](NC(=O)[C@@H]1CSSC[C@H](N)C(=O)N[C@@H](CO)C(=O)N[C@@H](CC(N)=O)C(=O)N[C@@H](CC(C)C)C(=O)N[C@@H](CO)C(=O)N[C@@H]([C@@H](C)O)C(=O)N1)C(C)C)C(=O)N[C@@H](CO)C(=O)N[C@@H](CCC(N)=O)C(=O)N[C@@H](CCC(=O)O)C(=O)N[C@@H](CC(C)C)C(=O)N[C@@H](Cc1c[nH]cn1)C(=O)N[C@@H](CCCCN)C(=O)N[C@@H](CC(C)C)C(=O)N[C@@H](CCC(N)=O)C(=O)N[C@H](C(=O)N[C@@H](Cc1ccc(O)cc1)C(=O)N1CCC[C@H]1C(=O)N[C@@H](CCCNC(=N)N)C(=O)N[C@H](C(=O)N[C@@H](CC(N)=O)C(=O)N[C@H](C(=O)NCC(=O)N[C@@H](CO)C(=O)NCC(=O)N[C@H](C(=O)N1CCC[C@H]1C(N)=O)[C@@H](C)O)[C@@H](C)O)[C@@H](C)O)[C@@H](C)O [sCT, salmon calcitonin]",AUC,"Enteric Capsule, Avg (n = 3)",788317 pg/mL-min
same,AUC,"Enteric Capsule, Dog 1",1178504 pg/mL-min
same,AUC,"Enteric Capsule, Dog 2 (delayed gastric emptying)",0 pg/mL-min
same,AUC,"Enteric Capsule, Dog 3",522432 pg/mL-min
same,AUC,"Enteric Capsule, Dog 4",664016 pg/mL-min
same,AUC,[1],69539 pg/mL-min
same,AUC,"Non-Enteric Capsule, Dog 1",79620 pg/mL-min
same,AUC,"Non-Enteric Capsule, Dog 2",103772 pg/mL-min
same,AUC,"Non-Enteric Capsule, Dog 3 (vomited capsule)",0 pg/mL-min
same,AUC,"Non-Enteric Capsule, Dog 4",25227 pg/mL-min
same,Tmax,"Enteric Capsule, Avg (n = 3)",105 min
same,Cmax,"Enteric Capsule, Avg (n = 3)",17.2 ng/mL
same,Cmax,"Enteric Capsule, Dog 1",25.1 ng/mL
same,Tmax,"Enteric Capsule, Dog 3",135 min
same,Cmax,"Enteric Capsule, Dog 3",13.2 ng/mL
same,Tmax,"Enteric Capsule, Dog 4",120 min
same,Cmax,"Enteric Capsule, Dog 4",13.1 ng/mL
same,Tmax,[1],30 min
same,Cmax,[1],2.26 ng/mL
same,Tmax,"Non-Enteric Capsule, Dog 1",30 min
same,Cmax,"Non-Enteric Capsule, Dog 1",2.65 ng/mL
same,Tmax,"Non-Enteric Capsule, Dog 2",30 min
same,Cmax,"Non-Enteric Capsule, Dog 2",3.15 ng/mL
same,Tmax,"Non-Enteric Capsule, Dog 4",30 min
same,Cmax,"Non-Enteric Capsule, Dog 4",0.971 ng/mL
same,"Cmax and AUC, enteric coated capsules versus non enteric-coated capsules",dogs,significantly enhanced
same,"amount of peptide detected in plasma, enteric coated capsules vs non-coated capsules",dogs,nearly eight times as much
same,time at which the maximum concentration was seen,dogs given coated capsules,105 min
same,time at which the maximum concentration was seen,dogs given uncoated capsules,30 min
same,plasma peptide concentration normalized to a 1 mg dose,"Dog 1, 0 min",0 pg/mL
same,plasma peptide concentration normalized to a 1 mg dose,"Dog 1, 15 min",0 pg/mL
same,plasma peptide concentration normalized to a 1 mg dose,"Dog 1, 30 min",407 pg/mL
same,plasma peptide concentration normalized to a 1 mg dose,"Dog 1, 45 min",22650 pg/mL
same,plasma peptide concentration normalized to a 1 mg dose,"Dog 1, 60 min",25136 pg/mL
same,plasma peptide concentration normalized to a 1 mg dose,"Dog 1, 75 min",6444 pg/mL
same,plasma peptide concentration normalized to a 1 mg dose,"Dog 1, 90 min",8167 pg/mL
same,plasma peptide concentration normalized to a 1 mg dose,"Dog 1, 105 min",4344 pg/mL
same,plasma peptide concentration normalized to a 1 mg dose,"Dog 1, 120 min",3193 pg/mL
same,plasma peptide concentration normalized to a 1 mg dose,"Dog 1, 135 min",2710 pg/mL
same,plasma peptide concentration normalized to a 1 mg dose,"Dog 1, 150 min",1706 pg/mL
same,plasma peptide concentration normalized to a 1 mg dose,"Dog 1, 165 min",1283 pg/mL
same,plasma peptide concentration normalized to a 1 mg dose,"Dog 1, 180 min",1301 pg/mL
same,plasma peptide concentration normalized to a 1 mg dose,"Dog 1, 195 min",459 pg/mL
same,plasma peptide concentration normalized to a 1 mg dose,"Dog 1, 210 min",347 pg/mL
same,plasma peptide concentration normalized to a 1 mg dose,"Dog 2 (delayed gastric emptying), 0 min",0 pg/mL
same,plasma peptide concentration normalized to a 1 mg dose,"Dog 2 (delayed gastric emptying), 15 min",0 pg/mL
same,plasma peptide concentration normalized to a 1 mg dose,"Dog 2 (delayed gastric emptying), 30 min",0 pg/mL
same,plasma peptide concentration normalized to a 1 mg dose,"Dog 2 (delayed gastric emptying), 45 min",0 pg/mL
same,plasma peptide concentration normalized to a 1 mg dose,"Dog 2 (delayed gastric emptying), 60 min",0 pg/mL
same,plasma peptide concentration normalized to a 1 mg dose,"Dog 2 (delayed gastric emptying), 75 min",0 pg/mL
same,plasma peptide concentration normalized to a 1 mg dose,"Dog 2 (delayed gastric emptying), 90 min",0 pg/mL
same,plasma peptide concentration normalized to a 1 mg dose,"Dog 2 (delayed gastric emptying), 105 min",0 pg/mL
same,plasma peptide concentration normalized to a 1 mg dose,"Dog 2 (delayed gastric emptying), 120 min",0 pg/mL
same,plasma peptide concentration normalized to a 1 mg dose,"Dog 2 (delayed gastric emptying), 135 min",0 pg/mL
same,plasma peptide concentration normalized to a 1 mg dose,"Dog 2 (delayed gastric emptying), 150 min",0 pg/mL
same,plasma peptide concentration normalized to a 1 mg dose,"Dog 2 (delayed gastric emptying), 165 min",0 pg/mL
same,plasma peptide concentration normalized to a 1 mg dose,"Dog 2 (delayed gastric emptying), 180 min",0 pg/mL
same,plasma peptide concentration normalized to a 1 mg dose,"Dog 2 (delayed gastric emptying), 195 min",0 pg/mL
same,plasma peptide concentration normalized to a 1 mg dose,"Dog 2 (delayed gastric emptying), 210 min",0 pg/mL
same,plasma peptide concentration normalized to a 1 mg dose,"Dog 3, 0 min",0 pg/mL
same,plasma peptide concentration normalized to a 1 mg dose,"Dog 3, 15 min",0 pg/mL
same,plasma peptide concentration normalized to a 1 mg dose,"Dog 3, 30 min",0 pg/mL
same,plasma peptide concentration normalized to a 1 mg dose,"Dog 3, 45 min",0 pg/mL
same,plasma peptide concentration normalized to a 1 mg dose,"Dog 3, 60 min",0 pg/mL
